This passage reports Activity and mortality results from ChEMBL document CHEMBL3045911, “Control of Contarinia nasturtii Keiffer (Diptera: Cecidomyiidea) by foliar sprays of acetamiprid on cauliflower transplants” (2007).

Structures are written as SMILES. The source made the active and inactive calls. No cut-off for these calls is given here.

The test system of assay [1] is Contarinia nasturtii. As to the kind of experiment: Pesticidal activity against Contarinia nasturtii grown on […] assessed as larval pupation applied as foliar spray 8 days post-ovipositioning relative to control. The format is functional.
Assay [2] has as its system Contarinia nasturtii. The assay can be described thus: Pesticidal activity against Contarinia nasturtii grown on […] assessed as larvae survival applied as foliar spray 8 days post-ovipositioning relative to control. The format is functional.
The test system of assay [3] is Contarinia nasturtii. As to the kind of experiment: Pesticidal activity against Contarinia nasturtii grown on […] applied as foliar spray immediately post-ovipositioning relative to control. Type of assay: functional.
The subject of assay [4] is Contarinia nasturtii. The assay can be described thus: Pesticidal activity against Contarinia nasturtii grown on three-leaf stage cauliflower seedling at 34 g a.i./ha applied as foliar spray 8 days post-ovipositioning measured after 10 days. The format is functional.
Assay [5] concerns Contarinia nasturtii. The assay can be described thus: Pesticidal activity against Contarinia nasturtii grown on three-leaf stage cauliflower seedling at 34 g a.i./ha applied as foliar spray 4 days post-ovipositioning measured after 7 days. Type of assay: functional.
Assay [6] deals with Contarinia nasturtii. As to the kind of experiment: Pesticidal activity against Contarinia nasturtii grown on three-leaf stage cauliflower seedling at 34 g a.i./ha applied as foliar spray immediately post-ovipositioning measured after 7 days. Type of assay: functional.
The test system of assay [7] is Contarinia nasturtii. The assay can be described thus: Pesticidal activity against Contarinia nasturtii grown on three-leaf stage cauliflower seedling assessed as decrease in insect eggs laid per plant at 34 g a.i./ha applied as foliar spray 4 days post-ovipositioning measured after 7 days relative to control. The format is functional, organism-based.
The test system of assay [8] is Contarinia nasturtii. The assay can be described thus: Pesticidal activity against Contarinia nasturtii grown on three-leaf stage cauliflower seedling assessed as insect egg death at 34 g a.i./ha applied as foliar spray immediately post-ovipositioning measured after 7 days relative to control. The format is functional.
Assay [9] deals with Contarinia nasturtii. As to the kind of experiment: Pesticidal activity against Contarinia nasturtii grown on three-leaf stage cauliflower seedling assessed as insect egg hatching at 34 g a.i./ha applied as foliar spray immediately post-ovipositioning measured after 7 days (reference value: 100%). The format is functional.
In assay [10] the test system is Contarinia nasturtii. The assay can be described thus: Pesticidal activity against Contarinia nasturtii grown on three-leaf stage cauliflower seedling assessed as decrease in insect eggs laid per plant at 34 g a.i./ha applied as foliar spray immediately post-ovipositioning measured after 7 days relative to control. Type of assay: functional, organism-based.
The test system of assay [11] is Contarinia nasturtii. As to the kind of experiment: Pesticidal activity against Contarinia nasturtii grown on three-leaf stage cauliflower seedling at 34 g a.i./ha applied as foliar spray prior to oviposition measured after 7 days. Type of assay: functional.
In assay [12] the test system is Contarinia nasturtii. The assay can be described thus: Pesticidal activity against Contarinia nasturtii grown on three-leafstage cauliflower seedling assessed as insect egg hatching at 34 g a.i./ha applied as foliar spray prior to oviposition measured after 7 days (reference value: 100%). The format is functional.
Assay [13] deals with Contarinia nasturtii. As to the kind of experiment: Pesticidal activity against Contarinia nasturtii grown on three-leaf stage cauliflower seedling assessed as insect egg death at 34 g a.i./ha applied as foliar spray prior to oviposition measured after 7 days. The format is functional, organism-based.
The subject of assay [14] is Contarinia nasturtii. The assay can be described thus: Pesticidal activity against Contarinia nasturtii grown on three-leaf stage cauliflower seedling assessed as decrease in larval feeding time at 34 g a.i./ha applied as foliar spray 8 days post-ovipositioning measured as emergence of adult insect in the soil 7 days after cutting of seedling. The format is functional, organism-based.

Assay [15] deals with Contarinia nasturtii. As to the kind of experiment: Pesticidal activity against Contarinia nasturtii grown on three-leaf stage cauliflower seedling assessed as decrease in mean number of larvae at 34 g a.i./ha applied as foliar spray 8 days post-ovipositioning measured on the above ground part of seedling after 10 days. The format is functional, organism-based.
For assay [16], the system named is Contarinia nasturtii. The assay can be described thus: Pesticidal activity against Contarinia nasturtii grown on three-leaf stage cauliflower seedling assessed as decrease in damage to seedling tips at 34 g a.i./ha applied as foliar spray 8 days post-ovipositioning measured after 10 days. Type of assay: functional, organism-based.
The subject of assay [17] is Contarinia nasturtii. As to the kind of experiment: Pesticidal activity against Contarinia nasturtii grown on three-leaf stage cauliflower seedling assessed as insect egg hatching at 34 g a.i./ha applied as foliar spray 8 days post-ovipositioning measured after 10 days (reference value: 100%). The format is functional.
Assay [18] deals with Contarinia nasturtii. The assay can be described thus: Pesticidal activity against Contarinia nasturtii grown on three-leaf stage cauliflower seedling assessed as insect egg hatching at 34 g a.i./ha applied as foliar spray 4 days post-ovipositioning measured after 7 days (reference value: 99.73 +/- 0.27%). The format is functional.
For assay [19], the system named is Contarinia nasturtii. As to the kind of experiment: Pesticidal activity against Contarinia nasturtii grown on three-leaf stage cauliflower seedling assessed as decrease in insect eggs laid per plant at 34 g a.i./ha applied as foliar spray prior to oviposition measured after 7 days relative to control. The format is functional, organism-based.
The test system of assay [20] is Contarinia nasturtii. The assay can be described thus: Pesticidal activity against Contarinia nasturtii grown on three-leaf stage cauliflower seedling assessed as mortality of insect adult at 34 g a.i./ha applied as foliar spray prior to oviposition measured after 48 hr relative to control. Type of assay: functional.
In assay [21] the test system is Contarinia nasturtii. The assay can be described thus: Pesticidal activity against Contarinia nasturtii grown on three-leaf stage cauliflower seedling assessed as mortality of insect adult at 34 g a.i./ha applied as foliar spray prior to oviposition measured after 24 hr relative to control. Type of assay: functional.

With `C/C(=N\C#N)N(C)Cc1ccc(Cl)nc1` [ACETAMIPRID], the Activity was 20% in the assay with Contarinia nasturtii [1]; 30% with Contarinia nasturtii [2]; 99.9% with Contarinia nasturtii [3]; 69.89% with Contarinia nasturtii [4]; 99.83% with Contarinia nasturtii [5]; 100% in the assay on Contarinia nasturtii [6]. Moreover, the Activity with Contarinia nasturtii [8] turned out to be 100%; in the assay on Contarinia nasturtii [9], 0%; in the assay with Contarinia nasturtii [11], 99.52%; in the assay with Contarinia nasturtii [12] it was 0.48%; in the assay on Contarinia nasturtii [17] it was 100%; with Contarinia nasturtii [18], 100%. Also, the result with Contarinia nasturtii [7], with Contarinia nasturtii [10] and in the assay on Contarinia nasturtii [16] was inactive. Also, the result in the assay with Contarinia nasturtii [13], in the assay with Contarinia nasturtii [14], in the assay with Contarinia nasturtii [15] and in the assay with Contarinia nasturtii [19] was Active. Moreover, the mortality at 34 g/ha in the assay on Contarinia nasturtii [20] came out at 100%; with Contarinia nasturtii [21], 84.4%.
